Test results: patent publication US11000033B2, “Ketone or oxime compound, and herbicide” (NISSAN CHEMICAL CORPORATION, priority 2014, dated 2021)

Tests used:
Assay type in all cases: in vivo
[1] = test system: Echinochloa oryzacola Vasing.; assay: Test Example 1: herbicidal activity, application before weed generation in submerged conditions (symbol A); conditions: application herbicide amount 320 g/ha
In short: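 Compound emulsion was diluted to a set herbicide amount and applied to the water surface on the sowing day, into submerged (4 cm) alluvial-soil pots sown with mixed weed seeds and transplanted 2.5-leaf rice. Pots were held in a 25–30 °C greenhouse, and weeds were scored 0–5 by herbicidal ratio after 3 weeks.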

Veronica persica = assay: Test Example 5: herbicidal effect by foliage application, plastic box (symbol R); conditions: 320 g/ha, 3 weeks after application
In short: (§1)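 Effect is rated 3 weeks after a foliar spray of water-diluted emulsion concentrate at a predetermined herbicide amount. Plants had grown 14 days in a 25° C. to 30° C. greenhouse from seed in sterilized diluvial soil.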

Abutilon theophrasti [2] = assay: Test Example 5: herbicidal effect by foliage application, plastic box (symbol M); conditions: 320 g/ha, 3 weeks after application
In short: as §1

Digitaria ciliaris = assay: Test Example 5: herbicidal effect by foliage application, plastic box (symbol F); conditions: 320 g/ha, 3 weeks after application
In short: as §1

[3] = test system: directly sowed rice plant; assay: Test Example 3: effect on crop by foliage application, Wagner pot (symbol b); conditions: application herbicide amount 320 g/ha, Table 24
In short: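 Plants are raised from seed in flooded paddy conditions: water stands 0.1–0.5 cm over alluvial soil, and the pot is kept in a greenhouse at 25–30 °C. Species sown are barnyardgrass (E. crus-galli var. crus-galli), Leptochloa chinensis, Cyperus difformis and rice.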

Chenopodium album = assay: Test Example 4: herbicidal effect by soil treatment (symbol O); conditions: application herbicide amount 320 g/ha
In short: (§2)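 Seeds were sown in sterilized diluvial soil, covered with about 1.5 cm of soil, and the soil surface was sprayed with a water-diluted emulsion of the compound at a predetermined rate. Plants grew in a greenhouse at 25° C. to 30° C.; effects were scored visually 3 weeks after application.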

Abutilon theophrasti [4] = assay: Test Example 4: herbicidal effect by soil treatment (symbol M); conditions: application herbicide amount 320 g/ha
In short: as §2

transplanted rice plant = assay: Test Example 1: effect on crop, application before weed generation in submerged conditions (symbol a); conditions: application herbicide amount 320 g/ha
In short: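 Alluvial soil pots flooded to 4 cm water, sown with Echinochloa oryzacola, Scirpus juncoides and Monochoria vaginalis, then transplanted with 2.5 leaf stage rice seedlings; pre-emergence application. Greenhouse 25° C. to 30° C.; scored 0–5 by herbicidal ratio 3 weeks after application.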

soybean [5] = assay: Test Example 5: effect on crop by foliage application, plastic box (symbol d); conditions: 320 g/ha, 3 weeks after application
In short: (§3)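 Greenhouse culture at 25° C. to 30° C. followed spot-like sowing into sterilized diluvial soil, with seed covered by roughly 1.5 cm of soil.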

[6] = test system: Echinochloa crus-galli var. crus-galli; assay: Test Example 4: herbicidal effect by soil treatment (symbol H); conditions: application herbicide amount 320 g/ha
In short: as §2

Apera spica-venti = assay: Test Example 4: herbicidal effect by soil treatment (symbol L); conditions: application herbicide amount 320 g/ha
In short: as §2

Avena fatua = assay: Test Example 5: herbicidal effect by foliage application, plastic box (symbol I); conditions: 320 g/ha, 3 weeks after application
In short: as §1

soybean [7] = assay: Test Example 4: effect on crop by soil treatment (symbol d); conditions: application herbicide amount 320 g/ha
In short: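 Crop seeds, among them rice, wheat, beet and rapeseed, were sown in sterilized diluvial soil and covered with about 1.5 cm of soil. Boxes were kept in a greenhouse at 25° C. to 30° C. for plant growth.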

corn = assay: Test Example 5: effect on crop by foliage application, plastic box (symbol c); conditions: 320 g/ha, 3 weeks after application
In short: as §3

| Structure (SMILES) | A (Echinochloa oryzacola Vasing.) herbicidal effect grade [1] | R: Veronica persica, herbicidal effect grade (Veronica persica) | M: Abutilon theophrasti, herbicidal effect grade (Abutilon theophrasti [2]) | F: Digitaria ciliaris, herbicidal effect grade (Digitaria ciliaris) | b (directly sowed rice plant) effect on crop grade [3] | Herbicidal effect grade, O: Chenopodium album (Chenopodium album) | Herbicidal effect grade, M: Abutilon theophrasti (Abutilon theophrasti [4]) | a (transplanted rice plant) effect on crop grade (transplanted rice plant) | d: soybean, effect on crop grade (soybean [5]) | Herbicidal effect grade, H: Echinochloa crus-galli var. crus-galli [6] | Herbicidal effect grade, L: Apera spica-venti (Apera spica-venti) | I: Avena fatua, herbicidal effect grade (Avena fatua) | Effect on crop grade, d: soybean (soybean [7]) | c: corn, effect on crop grade (corn) |
| --- | --- | --- | --- | --- | --- | --- | --- | --- | --- | --- | --- | --- | --- | --- |
| CC(CC1CC(O)=C(c2c(C)cc(-n3cc(Cl)cn3)cc2C)C1=O)=NOCC(F)(F)F (stereo not shown) [9-010] | 5 (Herbicidal ratio of 90% or more (almost completely withered)) | 3 (Herbicidal ratio of 40% or higher and lower than 70%) | 0 (Herbicidal ratio of 5% or lower (almost no effect)) | 5 (Herbicidal ratio of 90% or more (almost completely withered)) | 5 (Herbicidal ratio of 90% or more (almost completely withered)) | 0 (Herbicidal ratio of 5% or lower (almost no effect)) | 0 (Herbicidal ratio of 5% or lower (almost no effect)) | 5 (Herbicidal ratio of 90% or more (almost completely withered)) | 2 (Herbicidal ratio of 20% or higher and lower than 40%) | 5 (Herbicidal ratio of 90% or more (almost completely withered)) | 5 (Herbicidal ratio of 90% or more (almost completely withered)) | 4 (Herbicidal ratio of 70% or higher and lower than 90%) | 0 (Herbicidal ratio of 5% or lower (almost no effect)) | 3 (Herbicidal ratio of 40% or higher and lower than 70%) |
| CC#Cc1cc(C)c(C2=C(O)CC(CC(C)=NOCC(F)(F)F)C2=O)c(C)c1 (stereo not shown) [9-011] | 5 (Herbicidal ratio of 90% or more (almost completely withered)) | 3 (Herbicidal ratio of 40% or higher and lower than 70%) | 2 (Herbicidal ratio of 20% or higher and lower than 40%) | 5 (Herbicidal ratio of 90% or more (almost completely withered)) | 5 (Herbicidal ratio of 90% or more (almost completely withered)) | 0 (Herbicidal ratio of 5% or lower (almost no effect)) | 3 (Herbicidal ratio of 40% or higher and lower than 70%) | 5 (Herbicidal ratio of 90% or more (almost completely withered)) | 2 (Herbicidal ratio of 20% or higher and lower than 40%) | 5 (Herbicidal ratio of 90% or more (almost completely withered)) | 5 (Herbicidal ratio of 90% or more (almost completely withered)) | 5 (Herbicidal ratio of 90% or more (almost completely withered)) | 0 (Herbicidal ratio of 5% or lower (almost no effect)) | 5 (Herbicidal ratio of 90% or more (almost completely withered)) |
| CC(CC1CC(OC(=O)COc2ccccc2)=C(c2c(C)cc(-n3cc(Cl)cn3)cc2C)C1=O)=NOCC(F)(F)F (stereo not shown) [9-012] | 5 (Herbicidal ratio of 90% or more (almost completely withered)) | 3 (Herbicidal ratio of 40% or higher and lower than 70%) | 1 (Herbicidal ratio of 5% or higher and lower than 20%) | 5 (Herbicidal ratio of 90% or more (almost completely withered)) | 5 (Herbicidal ratio of 90% or more (almost completely withered)) | 0 (Herbicidal ratio of 5% or lower (almost no effect)) | 0 (Herbicidal ratio of 5% or lower (almost no effect)) | 5 (Herbicidal ratio of 90% or more (almost completely withered)) | 1 (Herbicidal ratio of 5% or higher and lower than 20%) | 5 (Herbicidal ratio of 90% or more (almost completely withered)) | 5 (Herbicidal ratio of 90% or more (almost completely withered)) | 5 (Herbicidal ratio of 90% or more (almost completely withered)) | 0 (Herbicidal ratio of 5% or lower (almost no effect)) | 5 (Herbicidal ratio of 90% or more (almost completely withered)) |
| CC#Cc1cc(C)c(C2=C(O)CC(CC(=NOCC(F)(F)F)C(C)C)C2=O)c(C)c1 (stereo not shown) [9-015] | 5 (Herbicidal ratio of 90% or more (almost completely withered)) | 4 (Herbicidal ratio of 70% or higher and lower than 90%) | 0 (Herbicidal ratio of 5% or lower (almost no effect)) | 5 (Herbicidal ratio of 90% or more (almost completely withered)) | 5 (Herbicidal ratio of 90% or more (almost completely withered)) | 0 (Herbicidal ratio of 5% or lower (almost no effect)) | 0 (Herbicidal ratio of 5% or lower (almost no effect)) | 5 (Herbicidal ratio of 90% or more (almost completely withered)) | 0 (Herbicidal ratio of 5% or lower (almost no effect)) | 5 (Herbicidal ratio of 90% or more (almost completely withered)) | 5 (Herbicidal ratio of 90% or more (almost completely withered)) | 4 (Herbicidal ratio of 70% or higher and lower than 90%) | 0 (Herbicidal ratio of 5% or lower (almost no effect)) | 5 (Herbicidal ratio of 90% or more (almost completely withered)) |
| COCCON=C(CC1CC(O)=C(c2c(C)cc(-n3cc(Cl)cn3)cc2C)C1=O)C(C)C (stereo not shown) [9-022] | 5 (Herbicidal ratio of 90% or more (almost completely withered)) | 0 (Herbicidal ratio of 5% or lower (almost no effect)) | 0 (Herbicidal ratio of 5% or lower (almost no effect)) | 5 (Herbicidal ratio of 90% or more (almost completely withered)) | 5 (Herbicidal ratio of 90% or more (almost completely withered)) | 0 (Herbicidal ratio of 5% or lower (almost no effect)) | 0 (Herbicidal ratio of 5% or lower (almost no effect)) | 5 (Herbicidal ratio of 90% or more (almost completely withered)) | 0 (Herbicidal ratio of 5% or lower (almost no effect)) | 5 (Herbicidal ratio of 90% or more (almost completely withered)) | 0 (Herbicidal ratio of 5% or lower (almost no effect)) | 0 (Herbicidal ratio of 5% or lower (almost no effect)) | 0 (Herbicidal ratio of 5% or lower (almost no effect)) | 2 (Herbicidal ratio of 20% or higher and lower than 40%) |
